Source: ChEMBL document CHEMBL3727358, “Inhibitors of inducible form of 6-phosphofructose-2-kinase” (2014)

target: 6-phosphofructo-2-kinase/fructose-2,6-bisphosphatase 3 (Homo sapiens, UniProt Q16875); experiment: Inhibition of iPFK2 (unknown origin) assessed as reduction in enzyme-mediated fructose-6-phosphate phosphorylation by measuring ATP consumption incubated for 3 hrs by luciferase-luciferin-coupled chemiluminescence assay
Sequence (Q16875 whole entry): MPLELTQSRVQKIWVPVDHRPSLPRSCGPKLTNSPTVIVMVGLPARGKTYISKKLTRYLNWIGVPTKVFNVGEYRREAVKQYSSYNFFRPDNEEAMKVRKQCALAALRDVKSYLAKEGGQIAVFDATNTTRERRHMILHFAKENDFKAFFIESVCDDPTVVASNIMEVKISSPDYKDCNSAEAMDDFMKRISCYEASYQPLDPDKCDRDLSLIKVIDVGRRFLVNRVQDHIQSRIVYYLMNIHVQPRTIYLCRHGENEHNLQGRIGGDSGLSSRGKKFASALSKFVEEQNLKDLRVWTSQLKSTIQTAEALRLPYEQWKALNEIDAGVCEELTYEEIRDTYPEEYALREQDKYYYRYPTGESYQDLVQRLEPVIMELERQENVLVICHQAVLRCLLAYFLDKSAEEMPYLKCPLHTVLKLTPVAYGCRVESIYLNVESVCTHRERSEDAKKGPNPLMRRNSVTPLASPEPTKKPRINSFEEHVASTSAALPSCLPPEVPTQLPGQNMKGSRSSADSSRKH

SMILES | IC50
COc1cccc([C@H](C)Nc2cc(-c3ccc4ncoc4c3)nc(C)n2)c1 | > 1 µM
COc1cccc([C@H](C)Nc2cc(-c3ccc4ncn(C)c4c3)nc(C)n2)c1 | > 1 µM
COc1cccc(-c2cc(NC3CCCc4ccccc43)nc(C)n2)c1 (configuration not stated) | > 1 µM
Cc1nc(N[C@@H]2CCCc3ccccc32)cc(-c2ccc3[nH]ncc3c2)n1 | > 1 µM
Cc1nc(N[C@@H]2CCCc3ccccc32)cc(-c2ccc(F)cc2)n1 | 0.5 µM
COc1cccc(-c2cc(NC(C)c3cccc(S(=O)(=O)NCC(=O)O)c3)nc(C)n2)c1 (configuration not stated) | > 1 µM
COc1cccc([C@H](C)Nc2cc(-c3cc(OC)c(OC)c(OC)c3)nc(C)n2)c1 | > 1 µM
CCOC(=O)Cc1coc2ccc(-c3cc(N[C@@H]4CCCc5ccccc54)nc(C)n3)cc12 | > 1 µM
Cc1nc(N[C@@H]2CCCc3ccccc32)cc(-c2cccc(Cl)c2)n1 | 0.5 µM
COc1cccc([C@H](C)Nc2cc(-c3ccccc3F)nc(C)n2)c1 | > 1 µM
Cc1nc(N[C@@H]2CCCc3ccccc32)cc(-c2cccc3cc[nH]c23)n1 | > 1 µM
Cc1nc(N[C@@H]2CCCc3ccccc32)cc(-c2cccc(C(N)=O)c2)n1 | > 1 µM
CCOc1cccc(-c2cc(N[C@@H]3CCCc4ccccc43)nc(C)n2)c1 | > 1 µM
CCC(C)Nc1cc(-c2ccc3ncsc3c2)nc(C)n1 (configuration not stated) | > 1 µM
CCCCCNc1cc(-c2ccc3ncsc3c2)nc(C)n1 | > 1 µM
Cc1nc(N[C@@H]2CCCc3ccccc32)cc(-c2ccc(OC(F)(F)F)cc2)n1 | > 1 µM
COc1cccc([C@@H](C)Nc2cc(-c3ccc4ncsc4c3)nc(C)n2)c1 | > 1 µM
Cc1nc(N[C@@H]2CCCc3ccccc32)cc(-c2cccc(OC(F)(F)F)c2)n1 | > 1 µM
Cc1nc(N[C@@H]2CCCc3ccccc32)cc(-c2cccc3c2ccn3C)n1 | > 1 µM
COCc1cccc(-c2cc(N[C@@H]3CCCc4ccccc43)nc(C)n2)c1 | > 1 µM
C#CCNS(=O)(=O)c1cccc(C(C)Nc2cc(-c3ccc4ncsc4c3)nc(C)n2)c1 (configuration not stated) | 0.5 µM
COc1cccc(-c2cc(NC(CCO)c3cccc(OC)c3)nc(C)n2)c1 (configuration not stated) | > 1 µM
Cc1nc(N[C@@H]2CCCc3ccccc32)cc(-c2cccc3[nH]ccc23)n1 | > 1 µM
Cc1nc(NC(C)c2cccc(-c3cnn(C)c3)c2)cc(-c2ccc3c(c2)N(C)CCO3)n1 (configuration not stated) | 0.5 µM
CCOC(=O)CC(Nc1cc(-c2cccc(OC)c2)nc(C)n1)c1cccc(OC)c1 (configuration not stated) | > 1 µM
COc1cccc([C@H](C)Nc2cc(-c3cc(OC)ccc3Cl)nc(C)n2)c1 | > 1 µM

SMILES | IC50
Cc1nc(N[C@@H](C)c2cccc(-c3cccn3C)c2)cc(-c2ccc3ncsc3c2)n1 | > 1 µM
Cc1nc(N[C@@H]2CCCc3ccccc32)cc(-c2ccc3c(c2)N(CCO)CC3)n1 | > 1 µM
COc1cccc([C@H](C)Nc2cc(-c3cccc(N(C)C)c3)nc(C)n2)c1 | > 1 µM
COc1cccc([C@H](C)Nc2cc(-c3ccc4cc[nH]c4c3)nc(C)n2)c1 | > 1 µM
COc1cccc(-c2cc(NC(C)c3cccc(NCC(=O)O)c3)nc(C)n2)c1 (configuration not stated) | > 1 µM
CCOC(=O)CCCOc1cccc(C(C)Nc2cc(-c3ccc4ncsc4c3)nc(C)n2)c1 (configuration not stated) | > 1 µM
CNC(=O)c1cc(-c2cc(N[C@@H]3CCCc4ccccc43)nc(C)n2)ccc1Cl | > 1 µM
Cc1nc(N[C@@H]2CCCc3ccccc32)cc(-c2ccc(N(C)C)cc2)n1 | > 1 µM
Cc1nc(N[C@@H]2CCCc3ccccc32)cc(-c2ccc3nc[nH]c3c2)n1 | > 1 µM
Cc1nc(NC(C)c2cccc(O)c2)cc(-c2ccc3ncsc3c2)n1 (configuration not stated) | 0.5 µM
CCc1ccc(-c2cc(NC(C)c3cccc(-c4cnn(C)c4)c3)nc(C)n2)cc1 (configuration not stated) | 0.5 µM
CC(=O)N1CCOc2ccc(-c3cc(N[C@@H]4CCCc5ccccc54)nc(C)n3)cc21 | > 1 µM
Cc1nc(NC[C@@H]2CCCN(C(=O)OC(C)(C)C)C2)cc(-c2ccc3ncsc3c2)n1 | > 1 µM
COc1cccc([C@H](C)Nc2cc(N[C@@H]3CCCc4ccccc43)nc(C)n2)c1 | > 1 µM
COc1cccc([C@H](C)Nc2cc(-c3ccc(F)cc3)nc(C)n2)c1 | > 1 µM
COc1cccc([C@H](C)Nc2cc(-c3cccc4[nH]ccc34)nc(C)n2)c1 | > 1 µM
Cc1nc(N[C@@H]2CCCc3ccccc32)cc(-c2ccc3c(c2)OCCN3C)n1 | > 1 µM
Cc1nc(NC2CCOc3ccc([N+](=O)[O-])cc32)cc(-c2ccc3ncsc3c2)n1 (configuration not stated) | > 1 µM
CCc1coc2ccc(-c3cc(NC(C)c4cccc(-c5cnn(C)c5)c4)nc(C)n3)cc12 (configuration not stated) | > 1 µM
COC(=O)CNc1cccc(CNc2cc(-c3cccc(OC)c3)nc(C)n2)c1 | > 1 µM
CNc1ccc(-c2cc(N[C@@H]3CCCc4ccccc43)nc(C)n2)cc1 | 0.5 µM
COc1cccc([C@H](C)Nc2cc(-c3ccc(N(C)C)cc3)nc(C)n2)c1 | > 1 µM
COc1cccc(C(C)Nc2cc(-c3ccc4occ(C)c4c3)nc(C)n2)c1F (configuration not stated) | > 1 µM
Cc1nc(NCCc2ccccn2)cc(-c2ccc3ncsc3c2)n1 | > 1 µM
CC(=O)Nc1ccc2c(c1)C(Nc1cc(-c3ccc4ncsc4c3)nc(C)n1)CCO2 (configuration not stated) | > 1 µM
CCC(Nc1cc(-c2cccc(OC)c2)nc(C)n1)c1cccc(OC)c1 (configuration not stated) | > 1 µM

SMILES | IC50
COc1cccc([C@H](C)Nc2cc(-c3cccc(Cl)c3)nc(C)n2)c1 | 0.5 µM
Cc1nc(NC(C)c2cccc(OCCCC(=O)N(C)C)c2)cc(-c2ccc3ncsc3c2)n1 (configuration not stated) | 0.5 µM
Cc1nc(NCCc2ccc(O)cc2)cc(-c2ccc3ncsc3c2)n1 | > 1 µM
COc1cccc([C@@H](C)Nc2cc(-c3ccc4occ(C)c4c3)nc(C)n2)c1 | > 1 µM
Cc1nc(N[C@@H]2CCCc3ccccc32)cc(-c2cccc(N)c2)n1 | > 1 µM
Cc1nc(NCCC(C)C)cc(-c2ccc3ncsc3c2)n1 | 0.5 µM
CCOC(=O)CCNC(=O)CC(Nc1cc(-c2cccc(OC)c2)nc(C)n1)c1cccc(OC)c1 (configuration not stated) | > 1 µM
COC(=O)CN1CCc2ccc(-c3cc(N[C@@H]4CCCc5ccccc54)nc(C)n3)cc21 | > 1 µM
Cc1nc(NC(C)c2cccc(N3CCOCC3)c2)cc(-c2ccc3ncsc3c2)n1 (configuration not stated) | 0.5 µM
CCCCCC(C)Nc1cc(-c2ccc3ncsc3c2)nc(C)n1 (configuration not stated) | > 1 µM
Cc1nc(N[C@@H]2CCCc3ccccc32)cc(-c2ccccc2F)n1 | > 1 µM
Cc1nc(NC(C)c2cccc(OCCn3cccc3)c2)cc(-c2ccc3ncsc3c2)n1 (configuration not stated) | > 1 µM
Cc1nc(N[C@@H]2CCCc3ccccc32)cc(-c2ccccc2Cl)n1 | > 1 µM
Cc1nc(N[C@@H]2CCCc3ccccc32)cc(-c2ccc3c(c2)NCC3)n1 | > 1 µM
COC(=O)c1cc(-c2cc(N[C@@H]3CCCc4ccccc43)nc(C)n2)ccc1Cl | 0.5 µM
COc1cc(-c2cc(NC(C)c3cccc(OCC(N)=O)c3)nc(C)n2)ccc1C (configuration not stated) | 0.5 µM
COc1cccc(-c2cc(NC(CC(=O)NCCCN(C)C)c3cccc(OC)c3)nc(C)n2)c1 (configuration not stated) | > 1 µM
Cc1nc(NC(C)c2cccc(OCCCC(=O)O)c2)cc(-c2ccc3ncsc3c2)n1 (configuration not stated) | 0.5 µM
Cc1nc(NC(C)c2cccc(OCC(=O)O)c2)cc(-c2ccc3ccn(C)c3c2)n1 (configuration not stated) | 0.5 µM
CNC(=O)CNc1cc(-c2cc(N[C@@H]3CCCc4ccccc43)nc(C)n2)ccc1Cl | > 1 µM
COc1ccc(F)c(CNc2cc(-c3ccc4ncsc4c3)nc(C)n2)c1Cl | > 1 µM
COc1cccc([C@H](C)Nc2cc(-c3ccc(C)c(OC)c3)nc(C)n2)c1 | 0.5 µM
Cc1nc(NC(C)c2cccc(OCC(=O)N3CCOCC3)c2)cc(-c2ccc3ncsc3c2)n1 (configuration not stated) | 0.5 µM
COC(=O)CN(C(=O)OC(C)(C)C)S(=O)(=O)c1cccc(C(C)Nc2cc(-c3cccc(OC)c3)nc(C)n2)c1 (configuration not stated) | > 1 µM
Cc1nc(N[C@@H](C)c2cccc(-c3ccccc3)c2)cc(-c2ccc3ncsc3c2)n1 | > 1 µM
COc1cc(-c2cc(NC(C)c3cccc(OCc4ccn(C)n4)c3)nc(C)n2)ccc1C (configuration not stated) | 0.5 µM

SMILES | IC50
CCn1cnc2ccc(-c3cc(N[C@@H]4CCCc5ccccc54)nc(C)n3)cc21 | > 1 µM
COc1cccc(C(CCC#N)Nc2cc(-c3ccc4ncsc4c3)nc(C)n2)c1 (configuration not stated) | > 1 µM
Cc1nc(NC(C)c2cccc(Br)c2)cc(-c2ccc3ncsc3c2)n1 (configuration not stated) | 0.5 µM
Cc1nc(NC(C)c2cccc(OCc3ccn[nH]3)c2)cc(-c2ccc3ncsc3c2)n1 (configuration not stated) | 0.5 µM
Cc1nc(N[C@@H]2CCCc3ccccc32)cc(-c2ccc(N)cc2)n1 | > 1 µM
COc1cccc([C@H](C)Nc2cc(-c3cccc4cc[nH]c34)nc(C)n2)c1 | > 1 µM
COc1cccc([C@H](C)Nc2cc(-c3ccc4[nH]ncc4c3)nc(C)n2)c1 | > 1 µM
Cc1nc(N[C@@H]2CCCc3ccccc32)cc(-c2ccc3c(c2)NCCO3)n1 | 0.5 µM
Cc1nc(NC(C)c2cccc(OCCCN(C)C)c2)cc(-c2ccc3ncsc3c2)n1 (configuration not stated) | 0.5 µM
COc1cccc(-c2cc(N[C@H]3CCCc4ccccc43)nc(C)n2)c1 | > 1 µM
Cc1nc(NC(C)c2cccc(OCc3ccn(C)n3)c2)cc(-c2ccc3occc3c2)n1 (configuration not stated) | 0.5 µM
Cc1nc(N[C@@H](C)c2cccc(-c3ccccc3)c2)cc(-c2ccc3occ(C)c3c2)n1 | 0.5 µM
Cc1nc(N[C@@H]2CCCc3ccccc32)cc(-c2ccc3c(c2)OC(F)(F)O3)n1 | > 1 µM
Cc1nc(NCCC2=CCCCC2)cc(-c2ccc3ncsc3c2)n1 | 0.5 µM
Cc1nc(NC(C)c2cccc(OCC(O)CF)c2)cc(-c2ccc3ncsc3c2)n1 (configuration not stated) | 0.5 µM
COc1cccc(-c2cc(Nc3cccc4ccccc34)nc(C)n2)c1 | > 1 µM
Cc1nc(NC(C)c2ccc(F)c(OCc3ccnn3C)c2)cc(-c2ccc3ncsc3c2)n1 (configuration not stated) | > 1 µM
Cc1nc(N[C@H]2CCCc3ccccc32)cc(-c2ccc3ncsc3c2)n1 | 0.5 µM
COc1cccc([C@H](C)Nc2cc(-c3ccccc3C)nc(C)n2)c1 | > 1 µM
Cc1nc(N[C@@H]2CCCc3ccccc32)cc(-c2ccc3c(c2)N(CCO)CCO3)n1 | > 1 µM
Cc1nc(N[C@@H]2CCCc3ccccc32)cc(-c2ccc3cn[nH]c3c2)n1 | > 1 µM
Cc1nc(N[C@@H]2CCCc3ccccc32)cc(-c2ccc3occ(CC(=O)NCCO)c3c2)n1 | > 1 µM
COc1cccc([C@H](C)Nc2cc(-c3ccccc3Cl)nc(C)n2)c1 | > 1 µM
Cc1nc(N[C@@H](C)C(C)(C)C)cc(-c2ccc3ncsc3c2)n1 | > 1 µM
